What was measured:
[1] = molecular target: Matrix metalloproteinase-14 (Homo sapiens, UniProt P50281); test: Inhibition of recombinant human MMP14 assessed as enzyme activity by measuring fluorescence using fluorogenic peptide substrate
[2] = Chemical stability of the compound in pH 7.4 aqueous solution assessed as degradation by measuring residual rate incubated measured after 2 weeks at 65 degC by HPLC analysis; format: physicochemical; conditions: read-out: Stability
CYP2C9 = CYP2C9 (Homo sapiens, UniProt P11712); test: Time dependent inhibition of CYP2C9 in human liver microsomes at 10 uM by LC-MS/MS analysis relative to control; format: ADME, Microsome; conditions: read-out: TDI
Chain of CYP2C9 (P11712 whole entry): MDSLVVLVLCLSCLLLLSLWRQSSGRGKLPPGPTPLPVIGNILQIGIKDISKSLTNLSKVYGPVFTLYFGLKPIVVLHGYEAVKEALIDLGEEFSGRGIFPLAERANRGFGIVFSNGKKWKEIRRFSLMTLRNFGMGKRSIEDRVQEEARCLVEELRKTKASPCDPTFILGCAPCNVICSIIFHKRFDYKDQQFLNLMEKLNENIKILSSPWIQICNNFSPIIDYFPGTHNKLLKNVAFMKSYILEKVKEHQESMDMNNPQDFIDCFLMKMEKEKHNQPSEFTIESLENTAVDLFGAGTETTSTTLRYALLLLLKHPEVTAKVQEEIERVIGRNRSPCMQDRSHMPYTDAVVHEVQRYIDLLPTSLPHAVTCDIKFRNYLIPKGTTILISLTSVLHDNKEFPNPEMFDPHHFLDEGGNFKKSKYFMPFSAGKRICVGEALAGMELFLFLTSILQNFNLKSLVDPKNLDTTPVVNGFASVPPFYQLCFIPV

**Q.** What does the source list for `CC(C)(C)[C@H](NC(=O)[C@H](Cc1ccncc1)NC(=O)CNC(=O)CC[C@H](NS(=O)(=O)c1ccc(Cl)c(C(F)(F)F)c1)C(=O)O)C(=O)Nc1ccc(C(=O)N2CCC(C(=O)N[C@H](CCCCN)C(=O)N3CC[C@H](N)C3)CC2)cc1`?
**A.** IC50 [1]: 1.7 µM; remaining at 336 h [2]: 99.1%; inhibition at 10 µM (CYP2C9): -11.5%

Reference: ChEMBL document CHEMBL5537178, “Discovery of TP0628103: A Highly Potent and Selective MMP-7 Inhibitor with Reduced OATP-Mediated Clearance Designed by Shifting Isoelectric Points” (J Med Chem, 2024)
